{"source": "BindingDB's records for doi:10.1016/j.bioorg.2015.02.002", "about": "(Bezmialem Vakif University, 2015)", "key": {"[1]": {"target": "Acetylcholinesterase (Electrophorus electricus, UniProt O42275)", "sequence (O42275 whole entry)": "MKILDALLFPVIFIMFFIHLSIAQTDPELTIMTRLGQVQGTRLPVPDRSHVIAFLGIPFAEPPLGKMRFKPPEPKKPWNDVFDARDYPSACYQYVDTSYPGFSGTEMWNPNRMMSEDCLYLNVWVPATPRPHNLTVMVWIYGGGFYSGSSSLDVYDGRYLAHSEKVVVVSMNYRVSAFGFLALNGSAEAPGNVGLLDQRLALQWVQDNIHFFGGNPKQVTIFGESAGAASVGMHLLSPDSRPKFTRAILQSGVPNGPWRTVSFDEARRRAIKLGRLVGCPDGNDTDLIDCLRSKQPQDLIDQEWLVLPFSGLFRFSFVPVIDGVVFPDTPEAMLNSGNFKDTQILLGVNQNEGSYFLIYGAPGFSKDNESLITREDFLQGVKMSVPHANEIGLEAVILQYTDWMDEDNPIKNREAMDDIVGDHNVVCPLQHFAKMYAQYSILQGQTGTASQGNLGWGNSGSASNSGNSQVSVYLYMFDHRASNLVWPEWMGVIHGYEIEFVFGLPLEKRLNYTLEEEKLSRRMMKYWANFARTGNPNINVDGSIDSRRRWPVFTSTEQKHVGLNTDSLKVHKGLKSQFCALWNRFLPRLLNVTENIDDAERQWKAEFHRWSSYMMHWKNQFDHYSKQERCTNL", "assay": "Anticholinesterase Activity Assays", "conditions": "pH 8", "procedure": "(§1) The substrates of the reaction were acetylthiocholine iodide and butyrylthiocholine iodide. 5,5'-dithio-bis(2-nitrobenzoic) acid (DTNB) was used for the measurement of the anticholinesterase activity. The solutions of the samples and galantamine in n-propanol were prepared at concentration of 4000 µg/mL. […] 10 µL of DTNB solution was prepared by adding 2.0 mL of pH 7.0 and 4.0 mL of pH 8.0 phosphate buffers to a mixture of 1.0 mL of 16 mg/mL DTNB and 7.5 mg/mL NaHCO3 in pH 7.0 phosphate buffers. The reaction was initiated by the addition of 10 µL (7.1 mM) acetylthiocholine iodide (or 0.79 mM butyrylthiocholine iodide). Propyl alcohol was used as a solvent to controls. The hydrolysis of these substrates was monitored at 412 nm."}, "[2]": {"target": "Carboxylic ester hydrolase (Equus caballus, UniProt Q9N1N9)", "sequence (Q9N1N9 whole entry)": "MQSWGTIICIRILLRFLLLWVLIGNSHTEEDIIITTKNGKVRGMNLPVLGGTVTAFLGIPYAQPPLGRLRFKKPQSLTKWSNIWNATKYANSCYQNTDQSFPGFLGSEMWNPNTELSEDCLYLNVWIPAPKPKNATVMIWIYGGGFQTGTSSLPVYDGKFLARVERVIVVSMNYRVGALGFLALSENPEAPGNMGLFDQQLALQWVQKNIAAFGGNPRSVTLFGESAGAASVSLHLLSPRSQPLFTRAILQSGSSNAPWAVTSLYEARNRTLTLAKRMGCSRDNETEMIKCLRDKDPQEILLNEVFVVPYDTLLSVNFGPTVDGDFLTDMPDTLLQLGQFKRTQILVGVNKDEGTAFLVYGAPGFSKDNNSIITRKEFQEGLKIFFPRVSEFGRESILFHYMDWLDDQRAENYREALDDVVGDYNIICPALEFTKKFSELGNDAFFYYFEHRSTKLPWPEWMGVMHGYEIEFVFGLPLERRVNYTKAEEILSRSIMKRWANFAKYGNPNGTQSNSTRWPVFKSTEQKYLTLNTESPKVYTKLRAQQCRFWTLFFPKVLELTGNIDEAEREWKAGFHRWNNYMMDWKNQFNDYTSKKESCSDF", "assay": "Anticholinesterase Activity Assays", "conditions": "pH 8", "procedure": "as §1"}}, "data": [{"smiles": "COc1cccc2cc(-c3csc(NC(=O)Nc4cccc(Cl)c4)n3)c(=O)oc12", "note": "[1-(4-(8-Methoxy-2-oxo-2H-chromen-3-yl)thiazol-2-yl)-3-(3-chlorophenyl)urea (e23)]", "values": [{"measurement": "IC50", "setting": "[1]", "value": 105, "unit": "µM"}, {"measurement": "IC50", "setting": "[2]", "value": 62.9, "unit": "µM"}]}, {"smiles": "COc1cccc2cc(-c3csc(NC(=S)Nc4ccc(Cl)cc4)n3)c(=O)oc12", "note": "[1-(4-(8-Methoxy-2-oxo-2H-chromen-3-yl)thiazol-2-yl)-3-(4-chlorophenyl)thiourea (f8)]", "values": [{"measurement": "IC50", "setting": "[1]", "value": 4.58, "unit": "µM"}, {"measurement": "IC50", "setting": "[2]", "value": 12.1, "unit": "µM"}]}, {"smiles": "COc1cccc2cc(-c3csc(NC(=O)Nc4ccccc4)n3)c(=O)oc12", "note": "[1-(4-(8-Methoxy-2-oxo-2H-chromen-3-yl)thiazol-2-yl)-3-phenylurea (e17)]", "values": [{"measurement": "IC50", "setting": "[1]", "value": 84.1, "unit": "µM"}, {"measurement": "IC50", "setting": "[2]", "value": 77.5, "unit": "µM"}]}, {"smiles": "COc1cccc(NC(=O)Nc2nc(-c3cc4cccc(OC)c4oc3=O)cs2)c1", "note": "[1-(4-(8-Methoxy-2-oxo-2H-chromen-3-yl)thiazol-2-yl)-3-(3-methoxyphenyl)urea (e14)]", "values": [{"measurement": "IC50", "setting": "[1]", "value": 83.8, "unit": "µM"}, {"measurement": "IC50", "setting": "[2]", "value": 56.5, "unit": "µM"}]}, {"smiles": "O=c1oc2ccccc2cc1-c1csc(NC(=S)Nc2cccc(F)c2)n1", "note": "[1-(3-Fluorophenyl)-3-(4-(2-oxo-2H-chromen-3-yl)thiazol-2-yl)thiourea (f1)]", "values": [{"measurement": "IC50", "setting": "[1]", "value": 16.4, "unit": "µM"}, {"measurement": "IC50", "setting": "[2]", "value": 20.8, "unit": "µM"}]}, {"smiles": "COc1cccc2cc(-c3csc(NC(=O)Nc4ccc(I)cc4)n3)c(=O)oc12", "note": "[1-(4-Iodophenyl)-3-(4-(8-methoxy-2-oxo-2H-chromen-3-yl)thiazol-2-yl)urea (e26)]", "values": [{"measurement": "IC50", "setting": "[1]", "value": 61.3, "unit": "µM"}, {"measurement": "IC50", "setting": "[2]", "value": 159, "unit": "µM"}]}, {"smiles": "COc1cccc2cc(-c3csc(NC(=S)Nc4ccccc4)n3)c(=O)oc12", "note": "[1-(4-(8-Methoxy-2-oxo-2H-chromen-3-yl)thiazol-2-yl)-3-phenylthiourea (f5)]", "values": [{"measurement": "IC50", "setting": "[1]", "value": 46, "unit": "µM"}, {"measurement": "IC50", "setting": "[2]", "value": 21.8, "unit": "µM"}]}, {"smiles": "COc1cccc2cc(-c3csc(NC(=O)Nc4cccc(F)c4)n3)c(=O)oc12", "note": "[1-(3-Fluorophenyl)-3-(4-(8-methoxy-2-oxo-2H-chromen-3-yl)thiazol-2-yl)urea (e21)]", "values": [{"measurement": "IC50", "setting": "[1]", "value": 67, "unit": "µM"}, {"measurement": "IC50", "setting": "[2]", "value": 110, "unit": "µM"}]}, {"smiles": "COc1cccc2cc(-c3csc(NC(=S)Nc4cccc(F)c4)n3)c(=O)oc12", "note": "[1-(4-(8-Methoxy-2-oxo-2H-chromen-3-yl)thiazol-2-yl)-3-(3-fluorophenyl)thiourea (f6)]", "values": [{"measurement": "IC50", "setting": "[1]", "value": 18.4, "unit": "µM"}, {"measurement": "IC50", "setting": "[2]", "value": 18, "unit": "µM"}]}, {"smiles": "O=C(Nc1ccc(Cl)cc1)Nc1nc(-c2cc3cc([N+](=O)[O-])ccc3oc2=O)cs1", "note": "[1-(4-Chlorophenyl)-3-(4-(6-nitro-2-oxo-2H-chromen-3-yl)thiazol-2-yl)urea (e32)]", "values": [{"measurement": "IC50", "setting": "[1]", "value": 129, "unit": "µM"}, {"measurement": "IC50", "setting": "[2]", "value": 78.3, "unit": "µM"}]}, {"smiles": "COc1cccc(NC(=O)Nc2nc(-c3cc4ccccc4oc3=O)cs2)c1", "note": "[1-(3-Methoxyphenyl)-3-(4-(2-oxo-2H-chromen-3-yl)thiazol-2-yl)urea (e2)]", "values": [{"measurement": "IC50", "setting": "[1]", "value": 52.8, "unit": "µM"}, {"measurement": "IC50", "setting": "[2]", "value": 75, "unit": "µM"}]}]}
